Measured values taken from patent US20140023611A1 (priority 2010, published 2014).
Marks after values point to notes of the source that are not given here. One block for each compound: values may come before it.

Assays:
rat NaP2b (SLC34A2) = target: T1, rat NaP2b (SLC34A2) (Rattus norvegicus, UniProt Q9JJ09); test: NaP2b-mediated Pi transport (33P uptake) in transfected HEK293 cells, rat NaP2b; format: cell-based; details: Structure (V) examples, Table 2; rat NaP2b, HEK293; read-out: pIC50 Range (converted)
T1 construct: host or cells: HEK293
T1 sequence (Q9JJ09 1-695): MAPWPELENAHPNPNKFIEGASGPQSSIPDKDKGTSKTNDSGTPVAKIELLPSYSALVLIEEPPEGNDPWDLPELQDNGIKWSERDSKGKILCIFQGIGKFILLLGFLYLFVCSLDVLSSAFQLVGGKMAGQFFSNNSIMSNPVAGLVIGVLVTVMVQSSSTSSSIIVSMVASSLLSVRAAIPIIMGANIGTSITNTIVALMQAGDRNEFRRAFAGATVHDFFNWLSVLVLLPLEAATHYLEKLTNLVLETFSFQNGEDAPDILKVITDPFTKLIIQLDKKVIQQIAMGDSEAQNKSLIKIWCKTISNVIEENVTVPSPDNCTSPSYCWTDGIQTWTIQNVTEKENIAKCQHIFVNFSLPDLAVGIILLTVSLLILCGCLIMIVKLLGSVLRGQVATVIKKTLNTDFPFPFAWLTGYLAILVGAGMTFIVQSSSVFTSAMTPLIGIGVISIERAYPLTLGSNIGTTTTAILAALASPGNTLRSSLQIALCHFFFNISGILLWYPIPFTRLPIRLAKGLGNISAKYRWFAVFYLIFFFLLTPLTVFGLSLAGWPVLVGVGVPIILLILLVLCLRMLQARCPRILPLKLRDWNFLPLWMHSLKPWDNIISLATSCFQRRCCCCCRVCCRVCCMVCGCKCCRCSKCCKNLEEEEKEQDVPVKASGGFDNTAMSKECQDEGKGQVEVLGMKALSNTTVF
How it was run: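 HEK293 cells transiently transfected with NaP2b cDNA, endogenous PiT transport suppressed; ^33P-phosphate uptake measured in sodium vs choline buffer (100 uM KH2PO4, pH 7.4) for 3–30 min at room temperature. Twelve concentrations, 0.1 nM–30 uM, in duplicate; uptake by scintillation counting, pIC50 calculated.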

[1] = Stability of compounds in simulated gastric and intestinal fluid; format: in vitro ADME; details: Structure (V) examples, Table 3, 3 hr; for % remaining, SGF: simulated gastric fluid; for % remaining, SIF: simulated intestinal fluid
Experimental: (§1) Test compounds were incubated at 1-20 μM in simulated gastric fluid (SGF; standard USP solution with 3 mg/mL pepsin) or simulated intestinal fluid (SIF; standard USP solution with 3 mg/mL pancreatin) for 3 hr or 6 hr. HPLC-UV or HPLC-MS were used to determine test compound levels using peak area %. Results (Table 5) were reported as the percentage of test compound remaining after incubation in a given condition relative to test compound present at t=0 in the same condition.
as §1, with “3” for “3 hr or 6”, “3)” for “5)”

[2] = tested on: 5/6 nephrectomy (5/6Nx) rat model of CKD; test: In vivo evaluation procedure: CKD rats, drug in chow; details: for FGF23 (serum FGF23 levels): ELISA
Experimental: To assess the ability of selected example compounds to impact the progression of chronic kidney disease (CKD), 5/6 nephrectomy (5/6Nx) rat model of CKD was used. […] Upon arrival, the surgeries and extent of kidney damage in the animals were assessed by measuring serum creatinine, P, Ca, and BUN. Based on this analysis, rats with inconsistent kidney function were removed from the study and the remainder of the cohort was divided in to evenly stratified test groups. The remaining animals were then placed on the same synthetic diet used in the drug-in-chow studies (Example 350), except the P levels were adjusted to 0.9% P. Drugs are blended into this chow to achieve the required dosing rate. At this time, rats were also started on an activated Vitamin D regimen in which they were injected intraperitoneally with calcitriol at 80 ng/kg three times a week. Once a week, serum was collected via retro orbital bleeding for analysis of serum P and creatinine utilizing an ACE ALERA blood chemistry analyzer. […] Unless otherwise indicated, the data shown is from the serum collected at 2 weeks after initiation of the treatment regimen. In addition, for study #3, during the third week of the study, the animals were placed in metabolic cages for two days, and urine collected for the final 24 hours.

[3] = Study 3, 5/6Nx rats, data at 3 weeks

- IC50 (rat NaP2b (SLC34A2)): 0.1 to 0.794 µM
- % remaining, SGF [1]: 21%
- % remaining, SIF [1]: 89%
SMILES: COCCNC(=O)CCSCc1cccc(C(=O)Nc2ccc(N3CCCCC3)cc2C(=O)N/N=C/c2ccc(Cl)c(C(F)(F)F)c2)c1 [Ex. 49, (E)-N-(2-(2-(4-chloro-3-(trifluoromethyl)benzylidene)hydrazinecarbonyl)-4-(piperidin-1-yl)phenyl)-3-((3-(2-methoxyethylamino)-3-oxopropylthio)methyl)benzamide]

SMILES: CCN(CC)c1ccc(NC(=O)c2cccc(CSCCOCCOCCOCCOCCOCCOCCOCCOCCC(=O)O)c2)c(-c2cc(C(=O)NCc3cccc(C(F)(F)F)c3)ccn2)c1 [Example 166, 1-(3-(4-(diethylamino)-2-(4-(3-(trifluoromethyl)benzylcarbamoyl)pyridin-2-yl)phenylcarbamoyl)phenyl)-5,8,11,14,17,20,23,26-octaoxa-2-thianonacosan-29-oic acid]
- Ser P (serum P) ([2]; Study 2, 5/6Nx rats, 0.9% P diet + calcitriol, 2 weeks): 11 mg/dL
- Ser CRE (serum creatinine) ([2]; Study 2, 5/6Nx rats, 2 weeks): 1.2 mg/dL
- FGF23 (serum FGF23 levels) ([2]; Study 2, 5/6Nx rats, 2 weeks): 100000 pg/mL
- Ser CRE (serum creatinine) [2, 3]: 1.0^§ mg/dL
- Ser P (serum P) [2, 3]: 10^§ mg/dL
- FGF23 (serum FGF23 levels) ([2]; Study 3, 5/6Nx rats, data at 4 weeks): 1.2 × 10^5§§ pg/mL

SMILES: CCN(CC)c1ccc(NC(=O)c2cccc(CCCOCCOCCOCCOCCOCCOCCOCCOCCOC)c2)c(-c2cc(C(=O)N[C@H]3CCCc4ccccc43)ccn2)c1 [Example 261, (S)-2-(2-(3-(2,5,8,11,14,17,20,23,26-nonaoxanonacosan-29-yl)benzamido)-5-(diethylamino)phenyl)-N-(1,2,3,4-tetrahydronaphthalen-1-yl)isonicotinamide]
- Ser P (serum P) ([2]; Study 1, 5/6Nx rats, 0.9% P diet + calcitriol, 2 weeks): 9.7 mg/dL
- Ser CRE (serum creatinine) ([2]; Study 1, 5/6Nx rats, 2 weeks): 1.0 mg/dL
- FGF23 (serum FGF23 levels) ([2]; Study 1, 5/6Nx rats, 2 weeks): >15,000 pg/mL

- IC50 (rat NaP2b (SLC34A2)): 0.1 to 0.794 µM
- % remaining, SGF [1]: 6%
- % remaining, SIF [1]: 107%
SMILES: O=C(NCCN1CCOCC1)c1cccc(C(=O)Nc2ccc(N3CCCCC3)cc2C(=O)N/N=C/c2ccc(Cl)c(C(F)(F)F)c2)c1 [Ex. 53, (E)-N^1-(2-(2-(4-chloro-3-(trifluoromethyl)benzylidene)hydrazinecarbonyl)-4-(piperidin-1-yl)phenyl)-N3-(2-morpholinoethyl)isophthalamide]
